Test results taken from PubChem BioAssay AID488890 (Southern Research Specialized Biocontainment Screening …, 2010).
Records with an inconclusive call do not appear. The source made the active and inactive calls. How the calls were made is not given here.

The molecules below were run on Mycobacterium tuberculosis non-replicating, growth inhibition (assay: growth inhibition of non-replicating M. tuberculosis (AID 488890)).

| Compound | IC50 |
| --- | --- |
| CCCCCCOc1ccc(C(=O)O)cc1C#N | 42.7 µM (inactive) |
| Cc1ccsc1/C=N/NC(=O)c1ccncc1 | 2.05 µM |
| Oc1ccc2cc(Br)ccc2c1CN1CCCC1 | 7.29 µM |
| O=C(CC1CC2CCC1C2)NCc1cccs1 (stereo unspecified) | 1.69 µM |
| O=C(COc1ccc2ccccc2c1)Nc1nccs1 | 5.88 µM |
| CCC1(O)CC(c2ccccc2)=NN1C(=O)c1ccccc1F (stereo unspecified) | 3.45 µM |
| O=C(COc1ccccc1)Nc1nnc(-c2ccc3c(c2)CCCC3)o1 | 0.9 µM |
| Cc1ncsc1CCOC(=O)c1ccc([N+](=O)[O-])cc1 | 10.4 µM (inactive) |
| C/C(=N\NC(=O)c1cccc(Br)c1)c1ccccn1 | 3.65 µM |
| O=C(NNC1=Nc2ccccc2SC1)c1ccc(F)cc1 | 17.3 µM (inactive) |
| O=C(COC(=O)c1ccc(O)cc1O)c1ccc2c(c1)OCO2 | 25.9 µM (inactive) |
| c1coc(CNc2nc(N3CCCCC3)nc3ccccc23)c1 | 2.9 µM |
| CC(C)c1ccc2[nH]c3c(c2c1)CCC/C3=N\NC(=O)c1ccncc1 | 8.7 µM |
| CCCCCCCC(=O)N/N=C/c1ccc([N+](=O)[O-])o1 | 2.63 µM |
| CCOc1ccc(CC(=O)N2N=C(C)CC2(O)C(F)(F)F)cc1 (stereo unspecified) | 13.3 µM (inactive) |
| NC(=S)n1[nH]c(-c2ccc([N+](=O)[O-])cc2)c(N=Nc2ccc(O)cc2)c1=O | 18.5 µM (inactive) |
| CCn1c2ccccc2c2cc(CNCc3ccc(OC)cc3OC)ccc21 | 7.41 µM |
| O=C(Oc1ccccc1)c1cccc(COC(=O)c2cnccn2)c1 | 28.6 µM (inactive) |
| COC(=O)c1ccc(N2CCN(CCNC(=O)Nc3ccc(OC)cc3)CC2)cc1 | 6.13 µM |
| CN1C(c2ccccc2)CC(=NO)CC1c1ccccc1 (stereo unspecified) | 11.3 µM (inactive) |
| O=C(c1ccc([N+](=O)[O-])s1)N1CCN(c2cccc(Cl)c2)CC1 | 0.38 µM |
| O=C(NCCCN1CCOCC1)c1c(O)c2cc(Br)cc(Br)c2[nH]c1=O | 0.8 µM |
| COc1cccc(/C=N/NC(=O)c2ccoc2C)c1O | 1.93 µM |
| CCOc1ccc(OCC(=O)OCc2cc(=O)n3cc(Br)ccc3n2)cc1 | 8.96 µM |

| Compound | IC50 |
| --- | --- |
| O=Cc1coc2ccc3ccccc3c2c1=O | 16.3 µM (inactive) |
| COc1cccc(NC(=O)c2ccc(C(=O)c3ccccc3)o2)c1 | 3.36 µM |
| CC(=O)Nc1nc2ccccc2n1Cc1ccc(C)cc1 | 3.21 µM |
| CCOc1ccc(NC(=O)COC(=O)C2(C)CC2(Cl)Cl)c([N+](=O)[O-])c1 (stereo unspecified) | 10.8 µM (inactive) |
| O=C(O)COc1ccc2occ(C(=O)c3ccccc3)c2c1 | 6.46 µM |
| CC(C)CN1C(=O)CC(Sc2ccccc2C(=O)O)C1=O (stereo unspecified) | 26.7 µM (inactive) |
| O=C1C=C(Nc2ccc(F)cc2)c2ccccc2C1=O | 5.36 µM |
| O=C(NNC(=O)c1ccccn1)c1cccc([N+](=O)[O-])c1 | 11 µM (inactive) |
| O=C(NC1CCCC1)c1cc(-c2cccs2)on1 | 5.66 µM |
| COc1ccc(S(=O)(=O)N(C(C)=O)c2ccc(OC(C)=O)c3ccccc23)cc1[N+](=O)[O-] | 13.6 µM (inactive) |
| COc1ccc(OCCSc2nnc(Cc3cccc4ccccc34)n2N)cc1 | 23.6 µM (inactive) |
| O=C(COC(=O)CC12CC3CC(CC(C3)C1)C2)Nc1cccnc1Cl | 15.2 µM (inactive) |
| COC(=O)N/N=C/c1ccc([N+](=O)[O-])s1 | 17 µM (inactive) |
| O=C(OCc1cccc([N+](=O)[O-])c1)c1ccc2ccccc2n1 | 7.25 µM |
| Fc1ccc(-c2ccc(CNCc3ccccn3)o2)cc1Cl | 8.76 µM |
| O=C(CCSc1nnc(-c2ccccc2)o1)N1CCOCC1 | 3.95 µM |
| CCC(=O)c1ccc(OCc2ccc(C(=O)OC)cc2)cc1 | 10.8 µM (inactive) |
| CCc1nnc(N/N=C/c2ccc(N3CCC(C)CC3)c([N+](=O)[O-])c2)n1N | 3.83 µM |
| c1cncc(-c2noc(CC3CCCCC3)n2)c1 | 1.25 µM |
| Oc1c(Br)cc(Br)cc1/C=N/c1nccs1 | 21.2 µM (inactive) |
| Cc1nc2ccc(NC(=O)c3ccc([N+](=O)[O-])cc3[N+](=O)[O-])cc2s1 | 7.88 µM |
| Cc1ccc(CNCc2cc(Cl)ccc2O)cc1 | 12.8 µM (inactive) |
| CCn1nnc(NC(=O)c2sc3ccccc3c2Cl)n1 | 28.5 µM (inactive) |
| O=C(CCS(=O)(=O)c1ccccc1)Nc1nc(-c2ccccn2)cs1 | 11.1 µM (inactive) |

| Compound | IC50 |
| --- | --- |
| Cc1cc(=O)[nH]c(-n2nc(C)cc2C)n1 | 4.88 µM |
| CCCOC(=O)c1cc(-c2ccc(C=O)o2)ccc1Cl | 4.94 µM |
| CC(NCCCOc1cccc2ccccc12)c1ccccc1 (stereo unspecified) | 15.5 µM (inactive) |
| O=C1N(c2ccc3c(c2)OCCO3)C(c2ccccc2)C1(F)F (stereo unspecified) | 2.28 µM |
| Cc1cc(Cl)ccc1OCCCC(=O)NO | 14.6 µM (inactive) |
| O=c1c2cc(Cl)ccc2oc2nc3n(c(=O)c12)CCCS3 | 3 µM |
| CCOC(=O)CCNC(=O)c1ccc2nc(C3CCCCC3)oc2c1 | 28.8 µM (inactive) |
| Cc1nc(Cl)nc(N(C)c2ccccc2)c1[N+](=O)[O-] | 9.3 µM |
| CCOC(=O)c1ccc(COC(=O)c2ccc(-c3nnc(-c4ccccc4)o3)cc2)o1 | 6.43 µM |
| COC(=O)CCc1nc2c(C#N)c(-c3ccc(Cl)cc3)ccn2n1 | 24.3 µM (inactive) |
| COc1cccc(C(=O)OCC(=O)Nc2nnc(-c3ccccc3)o2)c1 | 22.8 µM (inactive) |
| c1ccc2sc(SCc3ccc(-c4nnco4)cc3)nc2c1 | 13.2 µM (inactive) |
| COc1cccc2sc(N3CCN(C(=O)c4ccc([N+](=O)[O-])o4)CC3)nc12 | < 0.1 µM |
| O=[N+]([O-])c1ccc(-n2nnnc2-c2ccccc2)c([N+](=O)[O-])c1 | 6.37 µM |
| COc1ccc(-c2cc(C(F)(F)F)nc(S(C)(=O)=O)n2)cc1 | 2.87 µM |
| CCOC(=O)C1CSC(CC(=O)Nc2ccc(Cl)c(Cl)c2)C(=O)N1 (stereo unspecified) | 10.7 µM (inactive) |
| O=C(Nc1cccc([N+](=O)[O-])c1)C1COc2ccccc2O1 (stereo unspecified) | 21 µM (inactive) |
| Cc1ccc(NC(=O)C2CC2c2ccccc2)cc1 (stereo unspecified) | 15 µM (inactive) |
| CCCn1nnnc1NCc1ccc(C(C)C)cc1 | 5.89 µM |
| CCOC(=O)COc1ccc2c(=O)c(-c3ccccc3)coc2c1 | < 0.1 µM |
| COCCNC(=O)c1cc2cc(Cl)cc(Cl)c2oc1=O | 3.67 µM |
| O=C(c1ccc([N+](=O)[O-])o1)N1CCN(Cc2ccccc2)CC1 | 2.81 µM |
| CCOC(=O)CN1NC2(CCC(C)CC2)NC1=S (stereo unspecified) | 15.2 µM (inactive) |
| Cc1ccc(NC(=O)COc2ccccc2CNC(C)(C)CC(C)(C)C)cc1 | 16.5 µM (inactive) |

| Compound | IC50 |
| --- | --- |
| C/C(=N\NC(=O)c1ccco1)c1cc(Cl)sc1Cl | 4.89 µM |
| FC(F)(F)c1nc(SCc2ccc(Cl)cc2Cl)n[nH]1 | 4.69 µM |
| Cc1ccc(-c2nnc(NC(=O)c3ccco3)o2)c(C)c1 | 6.85 µM |
| CC1=Nc2ccccc2/C1=C/c1sc(=N)n(-c2nccs2)c1O | 1.51 µM |
| COc1ccc(CC(=O)OCC(=O)Nc2ccc(Br)cc2)cc1 | 14.6 µM (inactive) |
| CCOC(=O)C(=NCCOC)NNc1cc(Cl)ccc1Cl | 30.4 µM (inactive) |
| Cc1ccc(C(=O)c2cncc(Br)c2)cc1 | 9.3 µM |
| CCOc1ccc(OCC(=O)Nc2nccs2)cc1 | 7.75 µM |
| CCOc1ccc(C(=O)Nc2nnc(C3=COCCO3)o2)cc1 | 22.2 µM (inactive) |
| CC(C)OC(=O)c1c2c(n3ccccc13)C(=O)c1ccccc1C2=O | 9.5 µM |
| O=C(NNc1ccc([N+](=O)[O-])cc1)C1CC2CCCC(C1)C2=O (stereo unspecified) | 16.2 µM (inactive) |
| CC1C/C(=N/N2C(=O)CSC2=S)CC(C)(C)C1 (stereo unspecified) | 30.6 µM (inactive) |
| CC(/C=C/c1ccccc1)=N\NC(=O)c1ccc2c(c1)OCCO2 | 8.02 µM |
| CCCCCC(=O)N/N=C(\C)c1ccccn1 | 9.55 µM |
| Cc1cc(NCc2ccccn2)n2ncc(-c3ccccc3)c2n1 | 1.93 µM |
| O=C(Nc1ccc(Cc2ccncc2)cc1)c1ccc([N+](=O)[O-])o1 | 1.74 µM |
| COC(=O)CCS(=O)(=O)c1nc(-c2ccccc2)cc(C(F)(F)F)n1 | 2.25 µM |
| O=C(CCS(=O)(=O)c1ccc(F)cc1)Nc1nc(-c2ccccn2)cs1 | 7.41 µM |
| O=C(N/N=C/C(Br)=C/c1ccccc1)c1cnccn1 | 13.1 µM (inactive) |
| CCCCCCNC(=O)c1ccc(Br)o1 | < 0.1 µM |
| Cc1ccc(NC(CC(=O)c2ccccc2)C(=O)O)cc1Cl (stereo unspecified) | 8.32 µM |
| CCc1cc(C(c2ccncc2)N2CCN(C)CC2)c(NC(=O)c2ccccc2)s1 (stereo unspecified) | 10.6 µM (inactive) |
| Cc1cccc(-c2cc3nc(C)c(C)c(NCCCn4ccnc4)n3n2)c1 | 10.9 µM (inactive) |
| Cc1ccc(-n2cc(CNCCc3cscn3)c(-c3ccc(F)cc3)n2)cc1 | 10.9 µM (inactive) |

| Compound | IC50 |
| --- | --- |
| CCCN(Cc1nnc(-c2ccccc2Cl)o1)C(=O)c1cc([N+](=O)[O-])cc([N+](=O)[O-])c1 | 5.83 µM |
| Cc1ccc(N=Nc2c(C)[nH]n(C(N)=S)c2=O)cc1 | 2.35 µM |
| CC(C)(C)Nc1nc(NC(C)(C)C)nc(-n2ccnc2)n1 | 23 µM (inactive) |
| Cc1cccc(OCCCCc2c(C)n[nH]c2C)c1 | 9.86 µM |
| Cc1cc(C)cc(OCC(=O)N/N=C/c2ccc([N+](=O)[O-])o2)c1 | 1.36 µM |
| CCc1ccc(OCC(=O)c2c(O)c3ccccc3oc2=O)cc1 | 9.35 µM |
| Fc1ccc(-c2nnc(CSc3nnc(-c4cccs4)o3)o2)cc1 | 3.68 µM |
| CCC(=O)Nc1nc2ccccc2n1Cc1ccccc1 | 4.86 µM |
| CC(C)(C)c1ccc(C(=O)Nc2nnc(C3=COCCO3)o2)cc1 | 3.07 µM |
| CCCCCC/C(=N/O)c1ccccn1 | 11.6 µM (inactive) |
| O=C(OCc1nnc(-c2ccccc2)o1)c1cc([N+](=O)[O-])ccc1Cl | 6.28 µM |
| O=C(N/N=C/C=C/c1ccccc1)c1cccs1 | 45.2 µM (inactive) |
| CC(C)C[C@H]1CN=C(Nc2ccccc2)N1CCCC1CCCCC1 | 8.79 µM |
| O=C1CC(N2CCC(C(=O)N3CCCCC3)CC2)C(=O)N1 (stereo unspecified) | 12.3 µM (inactive) |
| CCC1CCCCN1S(=O)(=O)c1ccc(C(=O)Nc2nnc(-c3cccs3)o2)cc1 (stereo unspecified) | 11 µM (inactive) |
| COC(=O)c1ccc(COC(=O)c2ccccn2)cc1 | 7.11 µM |
| O=C(c1ccccc1[N+](=O)[O-])N1N=C(c2ccccc2)CC1(O)C(F)(F)F (stereo unspecified) | 3.92 µM |
| CCOc1ccccc1NC(=O)COn1nnc2ccc(Cl)cc21 | 10.5 µM (inactive) |
| CNc1nnc(Sc2ncccc2[N+](=O)[O-])s1 | 5.8 µM |
| CSC1=N/C(=C\c2ccc(Br)o2)C(=O)S1 | 28.7 µM (inactive) |
